Earlier results, collected in patent publication US7795231B2, “Concentrated aqueous azalide formulations” (Insite Vision Incorporated, priority 2007, dated 2010).
Where a name gives a salt, the structure may show the parent alone.

## CC[C@H]1OC(=O)[C@H](C)[C@@H](O[C@H]2C[C@@](C)(OC)[C@@H](O)[C@H](C)O2)[C@H](C)[C@@H](O[C@@H]2O[C@H](C)C[C@H](N(C)C)[C@H]2O)[C@](C)(O)C[C@@H](C)CN(C)[C@H](C)[C@@H](O)[C@]1(C)O [azithromycin dihydrochloride]
  water solubility (in words): good water solubility
